In patent US6096529A, “Recombinant α-2,3-sialyltransferases and their uses” (priority 1997, dated 2000):

Experiments:
Format in all cases: biochemical
[1] = biological target: T1, purified recombinant α-2,3-sialyltransferase (Neisseria meningitidis serogroup B, UniProt P72097); assay: Enzymatic properties of the purified recombinant α-2,3-sialyltransferase (standard assay); settings: for inhibition at 1000 µM: 1 mM, standard assay; for activity stimulated by presence: 20 mM
T1 construct: made in house; host or cells: E. coli BMH71-18/pNST-18
Procedure: (§1) Measurement of Sialyltransferase Activity and Survey of Oligosaccharide Acceptors--FCHASE-labelled oligosaccharides were prepared as described above, while the APTS-labelled oligosaccharides were prepared by reductive amination of reducing saccharides according to the method described by Guttman et at. (Anal. Biochem233:234 (1996)) The Gal-β-APTS acceptor was derived from labelling of lactose; the Gal-α-APTS acceptor was derived from labelling of melibiose; the N-acetyllactosamine (LacNAc) acceptor was synthesized by APTS labelling of chitobiose, followed by enzymatic modification with bovine β-Galactosyl transferase to produce the LacNAc moiety-, the Gal-α-1.4-Gal-β acceptor was enzymatically synthesized from β-Gal-APTS with the α-1,4-galactosyltransferase from N. meningitidis. All of the reductive amination products were purified by gel permeation chromatography on Toyopearl HW4OF (Sigma-Aldrich), 1.5 cm×15 cm column, using water as the eluant. It should be mentioned that all of these molecules have the terminal reducing sugar ring opened in the process of labelling. APTS-saccharides were quantitated by measuring the A455, and using an extinction coefficient of 17160 M^-1 cm^-1 . The TMR-labelled oligosaccharides were prepared as described by Zhao et al. (1994) Glycobiology 4:239-242. For the TMR labelled acceptors we used an extinction coefficient of 80,000 M^-1 cm^-1 for quantitation. The sialyltransferase activity was routinely measured using 0.5 mM FCHASE-N-acetyllactosamine as the acceptor and the assay conditions as described above. For measurement of Km, and kcat values, assays were performed with the APTS labelled saccharides at room temperature. Assays were monitored so that for all acceptor concentrations, no more than 10% conversion to product occurred. The ranges of acceptor and donor concentrations were determined empirically, then a range spanning 0.2Km, up to 5Km, was used to obtain the values. Data were examined using the Grafit™3.0 software package (Erithacus Software, London, UK).
(§2) The reaction mixtures from the FCHASE- and APTS-labelled acceptors were analyzed by capillary electrophoresis performed with a Beckman instruments (Fullerton, Calif.) P/ACE 5510 equipped with a 3 mW Argon-ion laser induced fluorescence detector, λ excitation=488 nm λ emission=520 nm. The Capillary was of bare silica 75 μ X 57 cm, with the detector at 50 cm. The capillary was conditioned before each run by washing with 0.2 M NaOH for 2 min., water for 2 min., and either 20 mM sodium phosphate buffer, pH 7.4 or sodium tetraborate, pH 9.3, 2 min. Samples were introduced by pressure injection for 2-5 seconds, and the separation was performed at 18 kV, 75 μA. Peak integration was performed with the Beckman PACE-Station software (version 1).

[2] = biological target: T1, purified recombinant α-2,3-sialyltransferase; assay: Determination of kinetic constants with APTS-labelled acceptors; settings: for kcat IKm: apparent, APTS-labelled acceptor, CMP-Neu5Ac 200 μM
Procedure: as §1, §2

[3] = biological target: T2, N. meningitidis α-2,3-sialyltransferase (Neisseria meningitidis serogroup B, UniProt P72097); parameters: b112 rows possibly recombinant MC58 lst (pNST-01) in E. coli extracts; settings: for ratios of activity as acceptor: synthetic saccharide acceptors, relative to FCHASE-aminophenyl-LacNAc; for activity stimulated by addition: 10 mM, enzyme from N. meningitidis extracts
Procedure: Measurement of Sialyltransfrase Activity--The sialyltransferase activity from N. meningitidis MC58L3, 406Y L3 and M982B L7, and the E. coli carrying pNST plasmids was measured in toluene treated cells or cell free extracts prepared as described previously (Wakarchuk, et al. (1996) J. Biol. Chem. in Press) acceptors were derived from aminophenylglycosides reacted with 6(5-fluorescein-carboxamnido)-hexanoic acid succimidyl ester (FCHASE) and were prepared as previously described (Wakarchuk, et al. (1996) J. Biol. Chem. in Press). Reactions for the enzyme were performed at 37° C. in 20 μl of MES buffer, 50 mM pH 6.0, 10 mM MnCl2, with 0.2 or 1.0 mM labeled acceptor, 0.2 mM CMP-Neu5Ac donor and various amounts of enzyme, either from crude bacterial extracts, or extracts of recombinant E. coli with the cloned gene. The recombinant enzymes were assayed for 10-120 minutes, while extracts from N. meningitidis were incubated 1-15 h. The reactions were terminated by diluting the reaction 1:100 with 10 mM NaOH. These samples were then diluted appropriately in water prior to analysis by capillary electrophoresis.
Capillary electrophoresis (CE) and was performed with a Beckman (Fullerton, Calif.) P/ACE 5510 equipped with a 3 mW Argon-ion laser induced fluorescence detector, λ excitation=488 nm, λ emission=520 nm. The capillary was bare silica 75 μ X 47 cm, with the detector at 40 cm. The capillary was conditioned before each run by washing with 0.2 M NaOH for 2 min., water for 2 min., and 25 mM sodium tetraborate pH 9.4 for 2 min. Samples were introduced by pressure injection for 2-5 seconds, and the separation was performed at 15 kV, 75 μA. Peak integration was performed with the Beckman System Gold (version 8.1) software.
Target sequence in this assay (P72097 whole entry Q29H/E40D/N94K/T242A/K273N): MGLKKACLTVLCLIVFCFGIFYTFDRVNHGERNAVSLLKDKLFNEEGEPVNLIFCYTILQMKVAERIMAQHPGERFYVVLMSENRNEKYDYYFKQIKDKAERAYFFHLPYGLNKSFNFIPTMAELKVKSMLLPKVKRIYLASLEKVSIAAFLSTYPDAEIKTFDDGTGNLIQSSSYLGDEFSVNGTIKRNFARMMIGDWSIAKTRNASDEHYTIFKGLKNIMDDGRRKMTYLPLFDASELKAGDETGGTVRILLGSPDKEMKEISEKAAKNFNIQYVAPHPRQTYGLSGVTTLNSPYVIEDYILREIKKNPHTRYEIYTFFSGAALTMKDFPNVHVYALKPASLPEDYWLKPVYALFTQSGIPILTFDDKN

[4] = biological target: T1, purified recombinant α-2,3-sialyltransferase; assay: Survey of oligosaccharide acceptors (qualitative, CE or TLC)
Procedure: Measurement of Sialyltransferase Activity and Survey of Oligosaccharide Acceptors--FCHASE-labelled oligosaccharides were prepared as described above, while the APTS-labelled oligosaccharides were prepared by reductive amination of reducing saccharides according to the method described by Guttman et at. […] APTS-saccharides were quantitated by measuring the A455, and using an extinction coefficient of 17160 M^-1 cm^-1 . […] For the TMR labelled acceptors we used an extinction coefficient of 80,000 M^-1 cm^-1 for quantitation. The sialyltransferase activity was routinely measured using 0.5 mM FCHASE-N-acetyllactosamine as the acceptor and the assay conditions as described above. […] Assays were monitored so that for all acceptor concentrations, no more than 10% conversion to product occurred. The ranges of acceptor and donor concentrations were determined empirically, then a range spanning 0.2Km, up to 5Km, was used to obtain the values. […]
The reaction mixtures from the FCHASE- and APTS-labelled acceptors were analyzed by capillary electrophoresis performed with a Beckman instruments (Fullerton, Calif.) P/ACE 5510 equipped with a 3 mW Argon-ion laser induced fluorescence detector, λ excitation=488 nm λ emission=520 nm. […]

[5] = biological target: T2, N. meningitidis α-2,3-sialyltransferase; assay: Coupled sialylation of FCHASE-LacNAc with Neu5Ac, Neu5Pr or Neu5Gc and CMP-Neu5Ac synthetase; parameters: made in house; host or cells: E. coli BMH71-18/pNST-18; settings: for time to complete conversion of the acceptor (FCHASE-LacNAc): coupled reaction with CMP-Neu5Ac synthetase; for use as alternate donor, rate: compared with Neu5Ac
Procedure: Sialylation of FCHASE-thio-N-acetyllactosamine with N-acetyl-, N-propionyl and N-glycolyl-Neuraminic Acid--The 50 μL reaction mixtures included […] acceptor, and 2 mM of either Neu5Ac, Neu5Gc or Neu5Pr, in 100 mM Tris pH 7.5. 0.2 mM DTT, 10 mM MgCl2, […], with 50 mU inorganic pyrophosphatase (Sigma). 47 mU CMP-Neu5Ac synthetase, 5 mU purified α-2,3-sialyl-transferase. […] The masses of the sialylated products were measured in the negative ion mode on a VG Quattro triple quadrupole mass spectrometer (Fisons Instruments).
Target sequence in this assay (P72097 2-371): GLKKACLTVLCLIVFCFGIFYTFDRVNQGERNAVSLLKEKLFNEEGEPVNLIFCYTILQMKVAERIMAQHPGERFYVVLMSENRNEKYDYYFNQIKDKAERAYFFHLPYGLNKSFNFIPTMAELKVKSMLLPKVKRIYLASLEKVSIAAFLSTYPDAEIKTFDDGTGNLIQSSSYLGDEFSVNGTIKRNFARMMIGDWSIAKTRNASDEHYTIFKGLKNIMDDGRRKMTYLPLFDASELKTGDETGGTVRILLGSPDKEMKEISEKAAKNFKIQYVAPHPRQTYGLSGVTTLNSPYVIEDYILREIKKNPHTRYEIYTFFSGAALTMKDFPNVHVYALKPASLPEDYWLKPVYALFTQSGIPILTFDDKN

T1 sequence (P72097 2-371): as above

Compound: O[C@H](CS)[C@H](O)CS (racemic) [DTT, dithiothreitol]
- effect on the activity ([1]; 1-20 mM range): no effect

Compound: Nc1ccn([C@@H]2O[C@H](COP(=O)(O)OP(=O)(O)O)[C@@H](O)[C@H]2O)c(=O)n1 [CDP]
- inhibition at 1000 µM [1]: 40%

Compound: CC(=O)N[C@H]1[C@H]([C@H](O)[C@H](O)CO)O[C@](OP(=O)(O)OC[C@H]2O[C@@H](n3ccc(N)nc3=O)[C@H](O)[C@@H]2O)(C(=O)O)C[C@@H]1O [CMP-Neu5Ac]
- substrate inhibition ([2]; as high as 1 mM CMP-Neu5Ac): No significant substrate inhibition

Compound: Nc1ccn([C@@H]2O[C@H](COP(=O)(O)O)[C@@H](O)[C@H]2O)c(=O)n1 [CMP]
- inhibition at 1000 µM [1]: 80%

Compound: O=C(O)CN(CCN(CC(=O)O)CC(=O)O)CC(=O)O [EDTA]
- activity in the presence of EDTA ([1]; 5 mM EDTA, purified enzyme): still active
- activity in the presence of EDTA ([3]; 5 mM EDTA): active

Compound: O=C(CCCCCNC(=O)c1ccc(-c2c3ccc(=O)cc-3oc3cc(O)ccc23)c(C(=O)O)c1)Nc1ccc(OC2O[C@H](CO)[C@H](O)[C@H](O)[C@H]2O)cc1 (some centres unmarked) [FCHASE-aminophenyl-Gal]
- ratios of activity as acceptor [3]: 0.03

Compound: CC(=O)N[C@H]1[C@H](Oc2ccc(NC(=O)CCCCCNC(=O)c3ccc(-c4c5ccc(=O)cc-5oc5cc(O)ccc45)c(C(=O)O)c3)cc2)O[C@H](CO)[C@@H](O[C@@H]2O[C@H](CO)[C@H](O)[C@H](O)[C@H]2O)[C@@H]1O [FCHASE-aminophenyl-LacNAc]
- ratios of activity as acceptor [3]: 1

Compound: O=C(CCCCCNC(=O)c1ccc(-c2c3ccc(=O)cc-3oc3cc(O)ccc23)c(C(=O)O)c1)Nc1ccc(O[C@@H]2O[C@H](CO)[C@@H](O[C@@H]3O[C@H](CO)[C@H](O)[C@H](O)[C@H]3O)[C@H](O)[C@H]2O)cc1 [FCHASE-aminophenyl-Lac]
- ratios of activity as acceptor [3]: 0.29

Compound: O=S(=O)(O)c1cc(NC[C@H](O)[C@@H](O)[C@H](O)[C@H](O)CO[C@H]2O[C@H](CO)[C@H](O)[C@H](O)[C@H]2O)c2ccc3c(S(=O)(=O)O)cc(S(=O)(=O)O)c4ccc1c2c34 [Gal-α-(1→6)-Gal, Gal-α-(1→6)-Gal*]
- kcat IKm [2]: 517 M⁻¹ s⁻¹

Compound: O=C(CCCCCNC(=O)c1ccc(-c2c3ccc(=O)cc-3oc3cc(O)ccc23)c(C(=O)O)c1)NCCCCCCS[C@@H]1O[C@H](CO)[C@H](O)[C@H](O)[C@H]1O [Gal-β S AH-FCHASE]
- product formation with sulfur as the linkage atom [4]: product formation

Compound: O=S(=O)(O)c1cc(NC[C@H](O)[C@@H](O)[C@H](O[C@@H]2O[C@H](CO)[C@H](O)[C@H](O)[C@H]2O)[C@H](O)CO)c2ccc3c(S(=O)(=O)O)cc(S(=O)(=O)O)c4ccc1c2c34 [Gal-β-(1→4)-Glc, Gal-β-(1→4)-Glc*]
- kcat IKm [2]: 367 M⁻¹ s⁻¹

Compound: CC(=O)N[C@@H]1[C@@H](O)[C@H](O[C@@H]2O[C@H](CO)[C@H](O)[C@H](O)[C@H]2O)[C@@H](CO)O[C@H]1SCCCCCCNC(=O)CCCCCNC(=O)c1ccc(-c2c3ccc(=O)cc-3oc3cc(O)ccc23)c(C(=O)O)c1 [Gal-β-(1→4)-GlcNAc-β S AH-FCHASE]
- product formation with sulfur as the linkage atom [4]: product formation

Compound: CC(=O)N[C@H]1[C@H](O[C@@H]([C@H](O)[C@H](CNc2cc(S(=O)(=O)O)c3ccc4c(S(=O)(=O)O)cc(S(=O)(=O)O)c5ccc2c3c54)NC(C)=O)[C@H](O)CO)O[C@H](CO)[C@@H](O[C@@H]2O[C@H](CO)[C@H](O)[C@H](O)[C@H]2O)[C@@H]1O [LacNAc, Gal-β-(1→4)-β-GlcNAc-β-GlcNAc*]
- kcat IKm [2]: 1750 M⁻¹ s⁻¹
- increase of apparent Kcat/Km ([2]; relative to the terminal Gal-β monosaccharide acceptor): 5 fold

Compound: [Cl-].[Cl-].[Mg+2] [MgCl2]
- activity stimulated by presence ([1]; purified enzyme): 3 fold
- activity stimulated by addition [3]: 2 fold

Compound: [Cl][Mn][Cl] [MnCl2]
- activity stimulated by presence ([1]; purified enzyme): 4 fold
- activity stimulated by addition [3]: 3 fold

Compound: CC(=O)N[C@H]1[C@H]([C@H](O)[C@H](O)CO)OC(O)(C(=O)O)C[C@@H]1O (some centres unmarked) [Neu5Ac, 5-N-acetylneuraminic acid]
- time to complete conversion of the acceptor (FCHASE-LacNAc) [5]: 60 min

Compound: O=C(CO)N[C@H]1[C@H]([C@H](O)[C@H](O)CO)OC(O)(C(=O)O)C[C@@H]1O (some centres unmarked) [Neu5Gc, 5-N-glcolylneuraminic acid]
- conversion of the acceptor ([5]; after 120 min of incubation): above 90%
- use as alternate donor, rate [5]: rates lower than with Neu5Ac

Compound: CCC(=O)N[C@H]1[C@H]([C@H](O)[C@H](O)CO)OC(O)(C(=O)O)C[C@@H]1O (some centres unmarked) [Neu5Pr, N-propionyl-Neuraminic Acid]
- use as alternate donor, rate [5]: rates lower than with Neu5Ac
- time to complete conversion of the acceptor (FCHASE-LacNAc) [5]: 90 min

Compound: O=S(=O)(O)c1cc(NC[C@H](O)[C@@H](O)[C@H](O[C@@H]2O[C@H](CO)[C@H](O[C@H]3O[C@H](CO)[C@H](O)[C@H](O)[C@H]3O)[C@H](O)[C@H]2O)[C@H](O)CO)c2ccc3c(S(=O)(=O)O)cc(S(=O)(=O)O)c4ccc1c2c34 [P^k, Gal-α-(1→4)-Gal-(1→4)-β-Glc*]
- kcat IKm [2]: 93.3 M⁻¹ s⁻¹

Compound: Triton X-100
- effect of detergents on the enzyme ([3]; Triton X-100 up to 0.2%): exception
